According to patent US10076504B2, “Glucagon antagonists” (Ligand Pharmaceuticals, Inc., priority 2014, dated 2018):
Structures can show the parent of a compound that is named as a salt.

Key:
[1] = biological target: T1, human glucagon receptor (Homo sapiens, UniProt P47871); assay: Human glucagon receptor binding assay; details: displacement of [125I]glucagon from human glucagon receptor; read-out: Hu IC50
T1 construct: host or cells: Either human liver membranes or membranes of an unnamed recombinant cell line
Protocol: Compounds provided herein are dissolved in a suitable solvent (e.g., dimethylsulfoxide) at a concentration of 10 mM and then diluted in buffer (e.g., 50 mM Hepes, pH 7.4, 5 mM MgCl2, 1 mM CaCl2, and 0.2% BSA) to concentrations ranging from 1 nM to 100 μM. Compounds (20 μL/well) and [^125I]glucagon at the final concentration of 0.125 nM (20 μl/well) (Perkin Elmer) are added to and mixed in wells of a 96-well plate (Costar, Corning) containing 120 μL of buffer. Next, an appropriate aliquot of a membrane preparation containing the human glucagon receptor (isolated from human liver samples or obtained from a recombinant cell line) is added to the wells. The binding mixtures are incubated for 2 hrs at room temperature. In the meantime, a MultiScreen 96-well filter plate (Millipore) is treated with 200 μL of the buffer, which is vacuumed through the filter just before the binding mixtures are transferred to the plate. At the end of incubation, binding mixtures are transferred to the wells of the MultiScreen 96-well filter plate and filtered through by applying vacuum. The plate is washed once with 200 μL per well of the buffer, and the filters are dried and counted using a gamma counter.
The column marked “stereo” indicates whether the tested compound tested was racemic or the R-isomer (rac=racemic).

[2] = Single ascending dose study, safety and tolerability; assay type: in vivo, human; details: single oral doses 2 to 480 mg in NHV, 40 mg in T2DM subjects
Protocol: (§1) Oral doses of IIIa were administered to normal healthy volunteers (NHV) and subjects with type 2 diabetes mellitus (T2DM). A single center, randomized, double-blind, placebo-controlled single ascending dose study was done in both NHV (n=48) and T2DM subjects (n=8). Dose escalation only occurred after review of safety and tolerability data from previous dose levels (n=8/cohort; 2-placebo & 6-IIIa). Dosing of the T2DM cohort was initiated only after the equivalent dose had been administered to NHV and safety data had been reviewed. All subjects were administered IIIa in the morning after an overnight fast with the exception of the NHV in the 40 mg cohort. NHV subjects in the 40 mg cohort initially received IIIa in a fasted state. Following a 3 week washout period, IIIa was readministered after breakfast at 40 mg to determine the effects of food consumption on pharmacokinetics.
(§2) This was a single center, randomized, double-blind, placebo-controlled single ascending dose study in both normal healthy volunteers (NHV) (n=48) and subjects with type 2 diabetes mellitus (T2DM) (n=8). All subjects were administered Formula IIIa as a solution formulated with Captisol® after an overnight fast with the exception of the NHV in the 40 mg cohort. The NHV 40 mg cohort initially received Formula IIIa in a fasted state. Following a washout period, subjects received 40 mg Formula IIIa after breakfast to explore the effects of food consumption on pharmacokinetics.
In type 2 diabetes mellitus (T2DM), inappropriately elevated levels of glucagon exacerbate hyperglycemia and its associated complications. Not wishing to be bound to a particular theory, it has been observed that antagonism of glucagon action reduces blood glucose levels and hemoglobin A1c in patients with T2DM. The novel, selective, orally bioavailable glucagon receptor antagonist, Formula IIIa (below), was investigated regarding its pharmacokinetics (PK), safety, and pharmacodynamics (PD) in a first-in-human, ascending, single-dose, double blind, placebo-controlled study in normal healthy (NH) and T2DM subjects (NCT01919684).

[3] = Solubility in water, buffers, simulated fluids and Captisol; assay type: physicochemical; details: thermodynamic from solid; for solubility: aqueous with cosolvent or surfactant or cyclodextrin, ambient conditions, UV after 2-3day equilibration; for solubility at 24 h: 25° C., HPLC after 24-hour equilibration
Protocol: Solubility of a sodium salt of Formula IIIa (below) was determined in water and at various pH values and simulated intestinal fluids using HPLC and UV analysis with and without modified beta-cyclodextrin (Captisol®). Phase solubility was used to estimate the Captisol®: Formula IIIa binding constant. The influence of Captisol® on oral absorption was modelled as shown below. The effect of Captisol® on solution stability was determined by HPLC. Plasma levels of Formula IIIa were measured by LCMS/MS.

[4] = Single ascending dose study, pharmacokinetics; assay type: in vivo, human; details: 2 to 480 mg oral, human subjects
Protocol: as §1, §2
Plasma levels of Formula IIIa were measured by validated LC-MS/MS method. Formula IIIa was well absorbed after oral administration with peak plasma concentrations reached approximately 5-8 hours post dose. Consistent with preclinical predictions, clearance was slow and Formula IIIa was not detected in the urine.

T1 sequence (P47871 26-477): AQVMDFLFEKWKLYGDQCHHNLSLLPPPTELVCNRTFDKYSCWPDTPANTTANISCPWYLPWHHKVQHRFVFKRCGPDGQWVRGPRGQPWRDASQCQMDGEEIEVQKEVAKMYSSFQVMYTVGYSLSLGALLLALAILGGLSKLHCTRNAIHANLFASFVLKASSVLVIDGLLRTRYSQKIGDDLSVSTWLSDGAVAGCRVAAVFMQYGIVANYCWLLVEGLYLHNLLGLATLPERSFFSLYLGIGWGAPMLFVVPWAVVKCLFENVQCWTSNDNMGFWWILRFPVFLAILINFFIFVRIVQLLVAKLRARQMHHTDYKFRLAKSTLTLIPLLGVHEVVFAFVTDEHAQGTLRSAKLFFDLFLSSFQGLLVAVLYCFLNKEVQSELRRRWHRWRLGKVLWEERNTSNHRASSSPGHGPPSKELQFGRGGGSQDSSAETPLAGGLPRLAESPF

Compound | IC50 [1] [nM] | tolerability [2] | solubility ([3]; 15% w/v Captisol) [µg/mL] | solubility ([3]; 35% w/v Captisol) [µg/mL] | solubility at 24 h ([3]; simulated gastric fluid, 0.01N HCL) [µg/mL] | solubility at 24 h ([3]; simulated gastric fluid, 0.1N HCL) [µg/mL] | solubility at 24 h ([3]; Fasted state simulated intestinal fluid (FaSSIF)) [µg/mL] | solubility at 24 h ([3]; Fed state simulated intestinal fluid (FeSSIF)) [µg/mL] | solubility at 24 h ([3]; Simulated gastric fluid (SGF)) [µg/mL] | solubility at 24 h ([3]; Water) [µg/mL] | plasma exposure versus dose [4]
Cc1cc(Cl)ccc1-c1ccc(NC(=O)C(Cc2ccc(C(=O)NCCS(=O)(=O)O)cc2)c2ccc(C3CCC(C(C)(C)C)CC3)cc2)cc1 (stereo not drawn) | 9 | – | – | – | – | – | – | – | – | – | –
Cc1cc(C(F)(F)F)ccc1-c1ccc(NC(=O)C(Cc2ccc(C(=O)NCCS(=O)(=O)O)cc2)c2ccc(C3=CCC(C)(C)CC3)cc2)cc1 (racemic) | 15 | – | – | – | – | – | – | – | – | – | –
Cc1cc(C)c(C2C=CC(NC(=O)[C@H](Cc3ccc(C(=O)NCCS(=O)(=O)O)cc3)c3ccc(-c4ccc(C(C)(C)C)cc4)cc3)=CC2)c(C)c1 (stereo partly drawn) [Formula IIIa sodium salt] | – | well tolerated | 11530 ± 40 | 32900 ± 440 | 70 | 60 | 210 | 6540 ± 190 | 40 ± 10 | 210 ± 10 | dose dependent increases
